The results in this text go back to patent US20250018047A1, “METHODS AND COMPOSITIONS FOR TARGETED PROTEIN DEGRADATION” (Ranok Therapeutics (Hangzhou) Co. Ltd., priority 2021, published 2025).

Counter-ions that a name gives are not always drawn.

Experiment [1] has as its target BA/F3-KRAS(G12D) murine pro-B cell line stably expressing KRAS(G12D) (Homo sapiens, UniProt P01116, G12D, cells depend on it). The experiment can be described thus: CellTiter-Glo cancer cell line proliferation assay, BA/F3-KRAS(G12D). It is filed as cell-based. The note with it: 24 hr, read-out: BAF3 at 24 hrs, IC50. The procedure, abridged:
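BA/F3 cells expressing KRAS(G12D), 4,000/well in RPMI 1640 + 10% FCS, exposed 24 h at 37 °C to 3-fold dilutions (20 μM to 1.02 nM, 0.5% DMSO). Viability by CellTiter-Glo luminescence; IC50 calculated from the dose-response.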
(In general: In ATP-based viability assays light output follows the ATP content of the culture.)

The target of experiment [2] is T1, KRAS(G12D)/SOS1 (Homo sapiens, UniProt P01116, G12D).
T1 construct: purchased Cisbio 63ADK000CB16PEG
T1 sequence (P01116 1-188 isoform P01116-2 G12D): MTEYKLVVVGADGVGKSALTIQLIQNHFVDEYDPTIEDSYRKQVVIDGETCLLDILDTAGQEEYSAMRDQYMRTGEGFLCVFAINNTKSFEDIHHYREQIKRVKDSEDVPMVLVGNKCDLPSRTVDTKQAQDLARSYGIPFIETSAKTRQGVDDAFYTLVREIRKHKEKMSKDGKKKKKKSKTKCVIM
The experiment can be described thus: KRAS(G12D)/SOS1 homogeneous time-resolved fluorescence (HTRF) assay. The note with it: absence of GTP, 4° C. for 3 hr. It is filed as binding. The protocol: The test compound was mixed and incubated with reaction components, incubated in a sealed plate at 4° C. for 3 hr and fluorescence was measured using a PerkinElmer Envision plate reader.

The subject of experiment [3] is A-427 human lung carcinoma. The experiment can be described thus: CellTiter-Glo cancer cell line proliferation assay, A-427. Type of experiment: cell-based. The note with it: Homo sapiens, A-427, 24 hr, read-out: A427 at 24 hrs, IC50. The procedure, abridged:
(§1)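 Cells plated at 4,000/well, grown 24 h at 37 °C/5% CO2, then exposed to compound concentration series (0.5% DMSO final) for 24 h. Viability read by CellTiter-Glo luminescence; IC50 values calculated.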

In experiment [4] the test system is AsPC-1 human pancreatic adenocarcinoma. In words: CellTiter-Glo cancer cell line proliferation assay, AsPC-1. Type of experiment: cell-based. The conditions noted are these: Homo sapiens, ASPC1, 24 hr. The procedure, abridged: as §1

Sequence of BA/F3-KRAS(G12D) murine pro-B cell line stably expressing KRAS(G12D) (P01116 whole entry G12D): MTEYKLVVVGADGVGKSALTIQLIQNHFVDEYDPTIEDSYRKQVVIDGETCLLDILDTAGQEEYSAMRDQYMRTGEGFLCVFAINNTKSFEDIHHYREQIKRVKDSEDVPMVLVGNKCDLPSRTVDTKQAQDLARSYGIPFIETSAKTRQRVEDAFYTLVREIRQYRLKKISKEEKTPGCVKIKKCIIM

For the molecule `C#Cc1cccc2cccc(-c3ncc4c(N5CC6CCC(C5)N6)nc(OC[C@@H]5C[C@H](N6CCN(Cc7ccc8c(c7)C(=O)N(C7CCC(=O)NC7=O)C8=O)CC6)CN5C)nc4c3F)c12` (stereo partly drawn) [Compound 7, 5-((4-((3S,5S)-5-(((4-(3,8-diazabicyclo[3.2.1]octan-3-yl)-7-(8-ethynylnaphthalen-1-yl)-8-fluoropyrido[4,3-d]pyrimidin-2-yl)oxy)methyl)-1-methylpyrrolidin-3-yl)piperazin-1-yl)methyl)-2-(2,6-dioxopiperidin-3-yl)isoindoline-1,3-dione formate], the GI50 in experiment [1] was more than 1 µM. Besides, the 50% inhibitory concentration (IC50) (as a rule, the midpoint of a concentration-inhibition curve) is less than 0.1 µM in experiment [2], more than 1 µM in experiment [3] and more than 1 µM in experiment [4].

With `CN1C[C@@H](N2CCC(C(=O)NCCOCCOc3ccc4c(c3)C(=O)N(C3CCC(=O)NC3=O)C4=O)CC2)C[C@H]1COc1nc(N2CC3CCC(C2)N3)c2cnc(-c3cccc4ccccc34)c(F)c2n1` (stereo partly drawn) [Compound 21, 1-((3S,5S)-5-(((4-(3,8-diazabicyclo[3.2.1]octan-3-yl)-8-fluoro-7-(naphthalen-1-yl)pyrido[4,3-d]pyrimidin-2-yl)oxy)methyl)-1-methylpyrrolidin-3-yl)-N-(2-(2-((2-(2,6-dioxopiperidin-3-yl)-1,3-dioxoisoindolin-5-yl)oxy)ethoxy)ethyl)piperidine-4-carboxamide formate], the GI50 in experiment [1] is more than 1 µM. Also, the values for the half-inhibitory concentration (IC50) in experiment [2], in experiment [3] and in experiment [4] were 0.1 to 1 µM, more than 1 µM and more than 1 µM, respectively.

With `CN1C[C@@H](N2CCC(C(=O)N3CCN(c4ccc5c(c4)C(=O)N(C4CCC(=O)NC4=O)C5=O)CC3)CC2)C[C@H]1COc1nc(N2CC3CCC(C2)N3)c2cnc(-c3cccc4cccc(Cl)c34)c(F)c2n1` (stereo partly drawn) [Compound 9, 5-(4-(1-((3S,5S)-5-(((4-(3,8-diazabicyclo[3.2.1]octan-3-yl)-7-(8-chloronaphthalen-1-yl)-8-fluoropyrido[4,3-d]pyrimidin-2-yl)oxy)methyl)-1-methylpyrrolidin-3-yl)piperidine-4-carbonyl)piperazin-1-yl)-2-(2,6-dioxopiperidin-3-yl)isoindoline-1,3-dione hydrochloride], the GI50 in experiment [1] is more than 1 µM. Moreover, the results for the half-maximal inhibitory concentration (IC50) in experiment [2], in experiment [3] and in experiment [4] were less than 0.1 µM, more than 1 µM and more than 1 µM, respectively.
